{"source": "patent US11484608B2", "about": "“Non-invasive assessment of hepatic mitochondrial metabolism by positional isotopomer NMR tracer analysis (PINTA)” (YALE UNIVERSITY, priority 2017, dated 2022)", "key": {"glucocorticoid receptor": {"target": "glucocorticoid receptor (Rattus norvegicus, UniProt P06536)", "sequence (P06536 whole entry, the tested form may be a part)": "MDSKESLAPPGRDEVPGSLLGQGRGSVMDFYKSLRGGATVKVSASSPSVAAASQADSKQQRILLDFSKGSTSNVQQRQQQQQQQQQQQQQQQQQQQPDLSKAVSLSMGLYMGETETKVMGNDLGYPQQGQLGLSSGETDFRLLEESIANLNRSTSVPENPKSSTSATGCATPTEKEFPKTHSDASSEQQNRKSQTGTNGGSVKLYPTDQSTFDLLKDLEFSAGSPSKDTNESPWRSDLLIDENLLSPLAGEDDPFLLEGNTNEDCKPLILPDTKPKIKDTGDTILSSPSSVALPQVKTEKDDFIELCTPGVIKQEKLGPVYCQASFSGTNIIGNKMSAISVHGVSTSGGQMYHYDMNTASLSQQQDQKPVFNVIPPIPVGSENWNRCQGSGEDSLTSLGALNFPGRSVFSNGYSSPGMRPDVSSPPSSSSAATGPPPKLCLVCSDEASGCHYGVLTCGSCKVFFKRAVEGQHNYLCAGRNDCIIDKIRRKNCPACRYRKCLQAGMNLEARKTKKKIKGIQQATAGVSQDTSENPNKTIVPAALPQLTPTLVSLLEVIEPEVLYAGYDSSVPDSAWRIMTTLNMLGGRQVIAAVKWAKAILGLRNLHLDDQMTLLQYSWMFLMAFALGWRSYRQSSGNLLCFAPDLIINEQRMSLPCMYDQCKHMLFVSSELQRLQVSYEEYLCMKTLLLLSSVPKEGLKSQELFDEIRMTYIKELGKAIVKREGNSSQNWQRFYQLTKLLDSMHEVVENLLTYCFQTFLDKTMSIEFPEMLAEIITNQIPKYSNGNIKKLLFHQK", "experimental": "8, 16, and 48 hr fasted rats were injected with a small molecule inhibitor of glycogen phosphorylase, 1-(3-(3-(2-Chloro-4,5-difluorobenzoyl) ureido)-4-methoxyphenyl)-3-methylurea (Sigma #361515; 5 mg/kg IV) and a tracer infusion of [2,3,3,3-^2H4]alanine ([…]prime for 5 min and […] continuous) and [3-^3H]glucose (0.3 μCi/min prime for 5 min and 0.3 μCi/min continuous) as well as [^13C4] β-hydroxybutyrate, [1,1,2,3,3-^2H5]glycerol, and [^13C16]palmitate at the rates listed in Table 9, for 120 min. Blood samples were obtained before (time zero) and 120 min after treatment with the glycogen phosphorylase inhibitor for measurement of turnover rates and plasma hormone/substrate concentrations. Hepatic acetyl-CoA content was altered by treatment with a CPT-1 inhibitor (etomoxir, 8 mg/kg) or an ATGL inhibitor (atglistatin, […]) in 0, 6, 16, and 48 hr fasted rats. Both agents were solubilized by suspending the drug in 4% ethanol/96% normal saline, heating to 60° C., and sonicating, and were cooled to room temperature before they were injected intraperitoneally. […] In these animals plasma glucose concentrations were measured every 15 minutes and a variable infusion of 20% glucose (Pfizer Hospira, Lake Forest, Ill.) was used to maintain plasma glucose concentrations ˜3.6-3.7 mM. The physiologic role of glucocorticoids was assessed in 6 and 48 hr fasted rats by treatment with a glucocorticoid receptor antagonist, mifepristone. Following a 2 hr tracer infusion at the rates described above to assess fatty acid, glycerol, glucose, and β-hydroxybutyrate turnover, rats were injected with mifepristone (40 mg/kg) IV. The tracer infusion was continued and the tracer of each of the above substrates was again measured 2 hr after treatment with mifepristone.\nAll whole-body substrate turnover rates were calculated using the equation Turnover=([Tracer APE/Plasma APE]−1)*Infusion rate, where APE designates the atom percent enrichment measured by mass spectrometry as described below (Biochemical Analysis). All chemicals used for flux analysis were obtained from SIGMA. Turnover of glucose, glycerol, and β-hydroxybutyrate were determined by gas chromatography-mass spectrometry (GC-MS). Briefly, both glucose and glycerol were deprotonized with 5 volumes of methanol, derivitized with 3 volumes of 1:1 acetic anhydride:pyridine, heated to 65° C. for 20 min, and 1 volume of methanol was added, then GC-MS was used in CI mode to measure glucose enrichment and EI mode to measure glycerol enrichment, with turnover calculated using the equation above. β-Hydroxybutyrate was deprotonized with 5 volumes of methanol and derivitized with 3 volumes of n-butanol 4N HCl, after which the samples were heated to 65° C. for 60 min, evaporated under N2 gas, and re-suspended in […] of trifluoroacetic acid:methylene chloride (1:7). Fatty acid turnover was measured by determining the plasma palmitate enrichment by GC-MS. Samples were prepared for measurements of palmitate enrichment by evaporating […] plasma, dissolving in […] 1:1 chloroform:methanol and derivitizing with […] boron trifluoride/methanol, then heating to 100° C. for 5 min, adding 2 mL pentane and 1 mL water, and centrifuging at low speed for 5 min. […] Alanine turnover was determined in rats infused with [2,3,3,3-^2H4]alanine by preparing samples to measure alanine enrichment by GC/MS (CI mode) using the same protocol as was employed to measure β-hydroxybutyrate enrichment."}, "[1]": {"tested_on": "primary mouse hepatocytes", "experiment": "In vitro glucose production, VPC and lipolysis in isolated hepatocytes", "type": "cell-based", "in_short": "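Primary mouse hepatocytes were plated and cultured overnight in low-glucose DMEM, with 10% FBS for glucose production or serum-free 0.5% BSA medium for lipolysis. Media were then collected after 8 hr at 37° C for glucose, NEFA and glycerol, and VPC was derived as the PINTA VPC/VEGP ratio × glucose production. Agents were present through the 8-hr assay, and values were normalized to total protein and expressed as fold change vs vehicle.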"}, "[2]": {"tested_on": "primary hepatocytes (cytosolic and mitochondrial calcium)", "experiment": "Ca2+ imaging in isolated hepatocytes", "type": "cell-based, mouse", "experimental": "Primary hepatocytes were isolated by the Yale Liver Center from wild-type and InsP3R-I KO mice and plated on glass coverslips coated with Rat Collagen Type I. Cells were loaded with the ratiometric cytosolic Ca^2+ indicator dye, Fura-2 AM (Thermo Fisher Scientific), or the mitochondrial matrix-targeted Ca^2+ indicator, Rhod-2 AM (Thermo Fisher Scientific) according to manufacturer's instructions. Ca^2+ imaging experiments were performed in 4-(2-hydroxyethyl)-1-piperazine ethanesulfonic acid (HEPES)-buffered balanced salt solution (25 mM HEPES, 121 mM NaCl, 4.7 mM KCl, 1.2 mM MgSO4, 1.2 mM KPO4, 5 mM NaHCO3, 2.0 mM CaCl2, 10 mM Glucose, pH 7.4) with or without the PKA inhibitor H-89 (25 μM) two to five hr following initial plating. Coverslips were transferred to a custom-built perfusion chamber on the stage of an inverted microscope connected to a RedShirtImaging camera (Olympus Life Science, Waltham, Mass.). […] For cytoplasmic calcium readings, changes in fluorescence (F, λ=340) were normalized by the initial fluorescence (F0, λ=380) and were expressed as F/F0. […] Individual cell responses were normalized to their respective baseline Rhod-2 AM fluorescence values, and changes were expressed as Normalized Δ Fluorescence."}, "[3]": {"conditions": "48-hr fasted rats, 40 mg/kg IV, 2 hr"}, "[4]": {"conditions": "WT hepatocytes, 100 nM glucagon, 8 hr"}, "[5]": {"conditions": "hepatocytes, 100 nM vasopressin"}}, "data": [{"smiles": "CC#C[C@]1(O)CC[C@H]2[C@@H]3CCC4=CC(=O)CCC4=C3[C@@H](c3ccc(N(C)C)cc3)C[C@@]21C", "note": "[mifepristone]", "values": [{"measurement": "reduction in plasma leptin concentrations", "setting": "glucocorticoid receptor; 48-hr fasted rats", "result": 60, "unit": "%"}, {"measurement": "WAT lipolysis", "setting": "glucocorticoid receptor; [3]", "result": "decreased"}, {"measurement": "ketogenesis", "setting": "glucocorticoid receptor; [3]", "result": "decreased"}, {"measurement": "plasma glucose concentrations", "setting": "glucocorticoid receptor; [3]", "result": "decreased"}, {"measurement": "whole-body glucose turnover", "setting": "glucocorticoid receptor; [3]", "result": "decreased"}, {"measurement": "WAT lipolysis, whole body glucose turnover, or plasma glucose or insulin concentrations", "setting": "glucocorticoid receptor; recently fed rats (6 hr)", "result": "no impact"}]}, {"smiles": "O=S(=O)(NCCNC/C=C/c1ccc(Br)cc1)c1cccc2cnccc12", "note": "[H-89, H-89 dichloroacetate hydrate]", "values": [{"measurement": "glucagon-stimulated VPC flux", "setting": "[1]; [4]", "result": "abrogated"}, {"measurement": "glucagon-stimulated glucose production", "setting": "[1]; [4]", "result": "abrogated"}, {"measurement": "effect of glucagon to stimulate intrahepatic lipolysis", "setting": "[1]; isolated hepatocytes", "result": "abrogated"}, {"measurement": "calcium response to glucagon", "setting": "[2]; WT hepatocytes, H-89 25 μM", "result": "abrogated"}]}, {"smiles": "NC(=O)CC[C@@H]1NC(=O)[C@H](Cc2ccccc2)NC(=O)[C@H](Cc2ccc(O)cc2)NC(=O)[C@@H](N)CSSC[C@@H](C(=O)N2CCC[C@H]2C(=O)N[C@@H](CCCN=C(N)N)C(=O)NCC(N)=O)NC(=O)[C@H](CC(N)=O)NC1=O", "note": "[vasopressin]", "values": [{"measurement": "VPC (effect of glucagon)", "setting": "[1]; [5]", "result": "recapitulated"}, {"measurement": "glucose production (effect of glucagon)", "setting": "[1]; [5]", "result": "recapitulated"}, {"measurement": "intrahepatic lipolysis (effect of glucagon)", "setting": "[1]; hepatocytes, vasopressin", "result": "recapitulated"}, {"measurement": "mitochondrial and cytosolic calcium signaling", "setting": "[2]; isolated WT hepatocytes (not InsP3R-I KO), 100 nM glucagon or 50 nM vasopressin", "result": "almost identical increase"}]}]}
